From patent US4117146A, “Method for treating depression and anxiety using phenyl hydrazo compounds” (The Dow Chemical Company, priority 1977, dated 1978)
Read-outs that look alike come from different tables or passages of the source.

Columns and labels:
[1] = system: reserpine-induced depression; test: protection from reserpine-induced depression (ptosis) in mice; format: in vivo; settings: for ED50: Mus musculus, 0.75 h; for antidepressant activity (in words): mean effective dose not calculated for the compounds of b45-b48
Experimental: Separate groups of mice of the same origin and past history (5 mice per group) were administered 2-(2-(2-chlorophenyl)hydrazino)-4,5-dihydro-1H-imidazole monohydrochloride in an aqueous carrier. Different groups were administered the compound by intraperitoneal injection at various dosage rates. Thirty minutes after the administration of the test compound, the mice were administered reserpine at a dosage rate of 2.5 milligrams per kilogram by intraperitoneal injection. Separate groups of similar mice were similarly administered 2.5 milligrams of reserpine per kilogram 30 minutes after administration of various dosages of the known antidepressant. The mice were then observed for 45 minutes for symptoms of reserpine-induced depression.
Protection from reserpine-induced depression is indicated by the absence of the characteristic ptosis.
The results were employed to calculate the dose effective to protect 50 percent of the mice (ED50) by classical, statistical procedures.
The procedure of Example 1 was repeated using oral administration of 2-(2-(2-chlorophenyl)hydrazino)-4,5-dihydro-1H-imidazole monohydrochloride instead of intraperitoneal injection.
Using the general procedure outlined above, the ED50 's were calculated for other compounds showing antidepressant properties. These compounds are represented by the general formula [drawing 2]

[2] = intraperitoneal acute 50 percent lethal dose; settings: mouse, in vivo, ip
[3] = Table I, oral, read-out: ORAL ED50
[4] = ip, Table I, intraperitoneal, read-out: Intraperitoneal ED50

Row | SMILES | ED50 ([1]; oral administration, reserpine 2.5 mg/kg i.p., read-out: oral ED50) | ED50 ([1]; ip, intraperitoneal, 30 minutes before reserpine 2.5 mg/kg i.p., read-out: ED50 (dose effective to protect 50 percent of the mice)) | antidepressant activity (in words) [1] | LD50 [2] | ED50 [1, 3] | ED50 [1, 4]
1 | Cl.Clc1ccccc1NNC1=NCCN1 [Example 1, 2-(2-(2-chlorophenyl)hydrazino)-4,5-dihydro-1H-imidazole monohydrochloride] | 2 mg/kg | < 10 mg/kg | particularly active as antidepressants | 167 mg/kg | – | –
2 | Fc1ccccc1NNC1=NCCN1.I [Example 3, 2-((2-fluorophenyl)hydrazino)-4,5-dihydro-1H-imidazole monohydriodide] | – | – | particularly active as antidepressants | – | 1 mg/kg | < 10 mg/kg
3 | CN1CCN=C1NNc1ccccc1F [Example 4] | – | – | – | – | 27 mg/kg | 37 mg/kg
4 | Fc1ccccc1NNC1=NCCCN1 [Example 5] | – | – | – | – | 43 mg/kg | 37 mg/kg
5 | CN1CCN=C1NNc1ccc(Cl)cc1Cl [Example 6] | – | – | – | – | – | 43 mg/kg
